This is an account of results in patent US10023575B2, “Cyclic ether derivatives of pyrazolo[1,5-a]pyrimidine-3-carboxyamide” (Boehringer Ingelheim International GmbH, priority 2015, dated 2018).

For one series, the target named is PDE 2A (Homo sapiens (Human), UniProt O00408). The series can be described thus: Phosphodiesterase (PDE) 2A assay with fluorescent substrate (IMAP, fluorescence polarization). It counts as biochemical. The settings on record: labeled cAMP 30 nM, read-out: PDE2 IC50. How it is done: (§1) The PDE reaction cleaves cAMP to AMP. The IMAP system (Molecular Device) using fluorescence polarization (FP) as detection principle was used to measure enzyme activity. A fluorescent labeled cAMP was used as substrate for the reaction, generating a labeled AMP. The fluorescent AMP binds specifically to the large M(III)-based nano-particles which reduces the rotational speed of the substrate and thus increases its polarization.
(§2) The inhibition of PDE 2A or 10 enzyme activity was assessed using IMAP-Phosphodiesterase-cAMP fluorescence labeled substrate (Molecular Devices, Order No. R7506), IMAP TR-FRET screening express (Molecular Devices, Order No. R8160, the TR-FRET component will not be used) and PDE 2A or PDE10 protein expressed upon baculovirus infection in SF9 cells. The cells were incubated after infection for ˜3 days and protein production was confirmed by Western Blot. The cells were collected by centrifugation and the pellet frozen in liquid nitrogen before it was resuspended in PBS containing 1% Triton X-100 and protease inhibitors. After 45 min incubation on ice, the cell debris was removed by centrifugation (13.000 rpm, 30 min).
(§3) All reactions were performed in 384 well plates, Perkin Elmer black optiplates and IMAP reaction buffer with 0.1% Tween20 (kit component)
(§4) Compounds were serial diluted in DMSO. With an intermediate dilution step with reaction buffer DMSO concentration was reduced to achieve 1% DMSO in the assay reaction. Setup of the assay started with 10 μl enzyme (˜10 ng/well, depending on prep. batch), 5 μl compound, reaction was started by addition of 5 μl labeled cAMP (30 nM, final concentration), immediately mixed for 15 seconds on a Eppendorf mixmate (2000 rpm) followed by an incubation at room temperature for 90 minutes in the dark. Reaction is stopped by adding of 60 μl binding buffer for FP/cAMP (kit component).
(§5) Each assay plate contained wells with vehicle controls (1% DMSO) for the measurement of non-inhibited reaction (=100% control) and wells without enzyme as 0% controls.
In general terms: Polarisation of emitted light reports the rotation of a fluorescent probe.

In the next series the target is PDE10 (Homo sapiens (Human), UniProt Q9Y233). The series can be described thus: Phosphodiesterase (PDE) 10 assay with fluorescent substrate (IMAP, fluorescence polarization). It counts as biochemical. The settings on record: labeled cAMP 30 nM. How it is done: as §1, §2, §3, §4, §5
Series [1] in a line: Plasma protein binding with equilibrium dialysis, human plasma. The settings on record: equilibrium dialysis 2 hours 37° C.; for fraction unbound at 2 h, 1 µM: human, pooled human plasma (with NaEDTA), pH 7.4, human plasma, read-out: PPB HUM % BINDING (converted); for PPB HUM % BINDING: human plasma, 1.0 μM. It counts as in vitro ADME. The text has this:
(§6) Plasma Protein Binding (Determination of Human and Rat Plasma Protein Binding with Equilibrium Dialysis)
(§7) This equilibrium dialysis (ED) technique is used to determine the approximate in vitro fractional binding of test compounds to human and rat plasma proteins.
(§8) Dianorm Teflon dialysis cells (micro 0.2) are used. Each cell consists of a donor and an acceptor chamber, separated by an ultrathin semipermeable membrane with a 5 kDa molecular weight cutoff.
(§9) Stock solutions for each test compound are prepared in DMSO at 1 mM and diluted to a final concentration of 1.0 μM. The subsequent dialysis solutions are prepared in pooled human and rat plasma (with NaEDTA)
(§10) Aliquots of 200 μL dialysis buffer (100 mM potassium phosphate, pH 7.4) are dispensed into the buffer chamber. Aliquots of 200 μL test compound dialysis solution are dispensed into the plasma chambers. Incubation is carried out for 2 hours under rotation at 37° C.
(§11) At the end of the dialysis period, the dialysate is transferred into reaction tubes. The tubes for the buffer fraction contain 0.2 ml Acetonitril/water (80/20). Aliquots of 25 μl of the plasma dialysate are transferred into deep well plates and mixed with 25 μl Acetonitril/water (80/20), 25 μl buffer, 25 μl calibration solution and 25 μl Internal Standard solution. Protein precipitation is done by adding 200 μl Acetonitrile. Aliquots of 50 μl of the buffer dialysate are transferred into deep well plates and mixed with 25 μl blank plasma, 25 μl Internal Standard solution and 200 μl Acetonitril. Samples are measured on HPLC-MS/MS-Systems and evaluated with Analyst-Software.
(§12) Percent bound is calculated with the formula: % bound=(plasma concentration−buffer concentration/plasma concentration)×100 and % free is calculated as difference.
On the technique in general: In equilibrium dialysis only unbound substance equilibrates across the membrane.

Series [2] is described as follows: Plasma protein binding with equilibrium dialysis, rat plasma. It is filed as in vitro ADME. The settings on record: rat, pooled rat plasma (with NaEDTA), pH 7.4, rat plasma, equilibrium dialysis 2 hours 37° C., read-out: PPB RAT % BINDING (converted).
From the text: as §6, §7, §8, §9, §10, §11, §12

Series [3] in a line: Metabolic stability in pooled human liver microsomes. It counts as in vitro ADME. The settings on record: 1 mg/mL protein, 1 μM compound, 37° C.; for half-life at 1 µM: human, pooled human liver microsomes, pH 7.6, human liver microsomes, read-out: Half-life t½ human; for Half-life t½ human: human liver microsomes. On the procedure: The metabolic degradation of the test compound was assayed at 37° C. with pooled liver microsomes from various species. The final incubation volume of 100 μl per time point contains TRIS buffer pH 7.6 at room temperature (0.1 M), magnesium chloride (5 mM), microsomal protein (1 mg/mL for human and dog, 0.5 mg/mL for other species) and the test compound at a final concentration of 1 μM. Following a short preincubation period at 37° C., the reactions were initiated by addition of betanicotinamide adenine dinucleotide phosphate, reduced form (NADPH, 1 mM), and terminated by transferring an aliquot into solvent after different time points. […] The half-life was determined by the slope of the semi-logarithmic plot of the concentration-time profile.
A general note: Liver microsomes are a subcellular fraction often used to study metabolism.

PDE10, sequence (Q9Y233 whole entry): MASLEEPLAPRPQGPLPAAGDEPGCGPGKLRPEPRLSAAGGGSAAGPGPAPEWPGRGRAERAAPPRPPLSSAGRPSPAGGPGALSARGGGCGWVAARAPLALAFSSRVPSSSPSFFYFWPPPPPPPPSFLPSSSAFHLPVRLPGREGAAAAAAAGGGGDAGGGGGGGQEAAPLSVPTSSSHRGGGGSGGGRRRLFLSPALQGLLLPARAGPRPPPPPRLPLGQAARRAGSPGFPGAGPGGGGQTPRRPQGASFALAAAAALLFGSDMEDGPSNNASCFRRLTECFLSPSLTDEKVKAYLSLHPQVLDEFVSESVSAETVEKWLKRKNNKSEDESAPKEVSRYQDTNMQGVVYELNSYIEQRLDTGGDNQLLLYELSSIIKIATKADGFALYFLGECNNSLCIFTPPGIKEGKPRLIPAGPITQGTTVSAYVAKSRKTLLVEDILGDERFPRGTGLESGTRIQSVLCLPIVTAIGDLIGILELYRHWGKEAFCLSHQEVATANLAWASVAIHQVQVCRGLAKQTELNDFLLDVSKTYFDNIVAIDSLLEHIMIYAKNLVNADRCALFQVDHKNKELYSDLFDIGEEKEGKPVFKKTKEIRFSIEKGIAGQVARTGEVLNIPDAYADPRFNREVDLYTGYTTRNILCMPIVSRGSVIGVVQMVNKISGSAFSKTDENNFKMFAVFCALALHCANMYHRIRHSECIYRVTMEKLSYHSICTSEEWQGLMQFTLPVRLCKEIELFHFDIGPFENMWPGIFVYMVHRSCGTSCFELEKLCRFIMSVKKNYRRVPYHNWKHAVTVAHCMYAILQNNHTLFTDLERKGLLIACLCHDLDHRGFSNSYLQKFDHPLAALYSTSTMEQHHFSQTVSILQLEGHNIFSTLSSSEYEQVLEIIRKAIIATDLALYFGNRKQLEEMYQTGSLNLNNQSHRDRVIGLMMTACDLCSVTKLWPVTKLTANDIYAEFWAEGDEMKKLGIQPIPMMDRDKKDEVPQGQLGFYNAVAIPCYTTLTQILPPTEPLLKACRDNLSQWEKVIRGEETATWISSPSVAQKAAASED
PDE 2A, sequence (O00408 whole entry, species assumed): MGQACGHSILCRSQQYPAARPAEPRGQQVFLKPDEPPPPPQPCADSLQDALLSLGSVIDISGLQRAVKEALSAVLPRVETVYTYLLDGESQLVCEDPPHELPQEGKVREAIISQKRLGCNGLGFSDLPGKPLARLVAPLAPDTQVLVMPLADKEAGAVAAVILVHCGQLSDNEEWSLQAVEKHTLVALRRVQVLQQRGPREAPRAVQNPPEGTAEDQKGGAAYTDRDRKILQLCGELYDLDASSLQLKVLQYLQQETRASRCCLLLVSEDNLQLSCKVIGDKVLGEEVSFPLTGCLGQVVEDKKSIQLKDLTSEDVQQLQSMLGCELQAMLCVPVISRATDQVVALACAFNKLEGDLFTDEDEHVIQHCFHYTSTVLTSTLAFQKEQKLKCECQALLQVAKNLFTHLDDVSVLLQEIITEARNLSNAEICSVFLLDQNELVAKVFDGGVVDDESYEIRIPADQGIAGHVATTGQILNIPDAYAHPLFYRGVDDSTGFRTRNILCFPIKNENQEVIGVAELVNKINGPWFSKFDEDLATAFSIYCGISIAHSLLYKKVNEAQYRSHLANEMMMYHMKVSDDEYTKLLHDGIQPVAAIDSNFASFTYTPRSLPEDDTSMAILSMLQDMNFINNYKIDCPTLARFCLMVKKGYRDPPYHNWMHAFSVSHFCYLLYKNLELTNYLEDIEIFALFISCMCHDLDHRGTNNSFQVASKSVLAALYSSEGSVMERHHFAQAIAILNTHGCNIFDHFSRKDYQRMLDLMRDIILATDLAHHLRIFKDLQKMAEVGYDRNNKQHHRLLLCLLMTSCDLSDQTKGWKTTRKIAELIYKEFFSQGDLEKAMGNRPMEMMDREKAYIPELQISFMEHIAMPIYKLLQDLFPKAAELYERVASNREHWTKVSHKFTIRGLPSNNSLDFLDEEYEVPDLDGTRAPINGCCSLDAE

In the case of `Cc1cnc2c(C(=O)NC3(c4ccc(C(F)(F)F)cc4F)CCOCC3)cnn2c1` [Example 2], the IC50 at PDE 2A is 0.022 µM; against PDE10 it was > 10 µM. Besides, the fraction unbound at 2 h, 1 µM in series [1] was 0.085; in series [2], 0.053. For the same compound, the half-life at 1 µM in series [3] was 2 h.
Regarding `O=C(NC1(c2ccc(C(F)(F)F)cc2F)COCC1O)c1cnn2cc(C3CC3)cnc12` (single isomer, unassigned) [Example 68], the IC50 at PDE 2A was 0.024 µM; against PDE10 it was > 10 µM. The “PPB HUM % BINDING” value in series [1] worked out at 84.4%. The “Half-life t½ human” value in series [3] is >2.17 h.
Consider `Cc1nn2cc(C3CC3)cnc2c1C(=O)NC1(c2ccc(C(F)(F)F)nc2)CCOCC1O` (racemic) [Example 51], for which, in series [1], the fraction unbound at 2 h, 1 µM is 0.531. Besides, the half-life at 1 µM in series [3] is > 2.17 h.
As to `Cc1cnc2c(C(=O)NC3(c4ccc(C(F)(F)F)cc4F)CCCOC3)cnn2c1` (racemic) [Example 31], the IC50 is 0.03 µM on PDE 2A and > 10 µM against PDE10. In addition, the fraction unbound at 2 h, 1 µM in series [1] is 0.047; in series [2] it was 0.024.
As to `O=C(NC1(c2ccc(C(F)(F)F)cc2F)COCC1O)c1cnn2cc(C3CC3)cnc12` (single isomer, unassigned) [Example 69], the values for the IC50 at PDE 2A and at PDE10 were 1.74 µM and > 10 µM, respectively. Besides, the “PPB HUM % BINDING” value in series [1] came out at 90.7%. Besides, the “Half-life t½ human” value in series [3] is 0.883 h.
With `Cc1nn2cc(C3CC3)cnc2c1C(=O)NC1(c2ccc(C(F)(F)F)nc2)CCOCC1O` (single isomer, unassigned) [Example 88b], the fraction unbound at 2 h, 1 µM in series [1] is 0.558. Also, the half-life at 1 µM in series [3] was > 2.17 h.
In the case of `Cc1cnc2c(C(=O)NC3(c4ncc(C(F)(F)F)cc4F)CCOCC3)c(C)nn2c1` [Example 18], the IC50 at PDE 2A was 0.129 µM; on PDE10, 8.63 µM.
In the case of `Cc1nn2cc(C3CC3)cnc2c1C(=O)NC1(c2ncc(C(F)(F)F)cc2F)CCOCC1O` (single isomer, unassigned) [Example 90b], the 50% inhibitory concentration (IC50) turned out to be 0.014 µM on PDE 2A and 7.35 µM against PDE10.
On the same counts, the results for `Cc1cnc2c(C(=O)NC3(c4ccc(Cl)cc4F)CCOC3)cnn2c1` (racemic) [Example 39] are 0.568 µM and > 10 µM.
Take `O=C(NC1(c2ccc(Br)cc2)CCOCC1)c1cnn2cc(C3CC3)cnc12` [Example 13]: the IC50 is 0.359 µM on PDE 2A and 9.91 µM at PDE10.
Turning to `O=C(NC1(c2ncc(C(F)(F)F)cc2F)CCOCC1)c1cnn2cc(C3CC3)cnc12` [Example 20], the IC50 at PDE 2A was 0.172 µM; at PDE10, > 10 µM.
`Cc1nn2cc(C3CC3)cnc2c1C(=O)NC1(c2ccc3ccccc3n2)CCOCC1` [Example 11]: the values for the IC50 at PDE 2A and against PDE10 were 0.297 µM and 1.47 µM, respectively.
Regarding `O=C(NC1(c2ccc(C(F)(F)F)nc2)CCOCC1O)c1cnn2cc(C3CC3)cnc12` (single isomer, unassigned) [Example 89a], the figures for the concentration for half-maximal inhibition (IC50) on PDE 2A and at PDE10 were 1 µM and > 10 µM, respectively.
For `Cc1cnc2c(C(=O)NC3(c4ccc(C(F)(F)F)cn4)CCOCC3)c(C)nn2c1` [Example 22], the IC50 at PDE 2A worked out at 0.119 µM; against PDE10 it was 9.92 µM.
As for `CC1(O)COCCC1(NC(=O)c1cnn2cc(C3CC3)cnc12)c1ccc(C(F)(F)F)cc1F` (single isomer, unassigned) [Example 86a], the fraction unbound at 2 h, 1 µM in series [1] was 0.105; in series [2], 0.065.
`O=C(NC1(c2ccc(C(F)(F)F)cn2)CCOCC1O)c1cnn2cc(C3CC3)cnc12` (racemic) [Example 63]: the 50% inhibitory concentration (IC50) on PDE 2A was 0.124 µM; on PDE10, > 10 µM.
On the same counts, the results for `O=C(NC1(c2ccc(C(F)(F)F)cc2F)CCOCC1O)c1cnn2cc(C3CC3)cnc12` (single isomer, unassigned) [Example 82b] are 0.04 µM and 8.46 µM.
As for `O=C(NC1(c2ccc(OC(F)F)c(F)c2)CCOCC1)c1cnn2cc(C3CC3)cnc12` [Example 14], the values for the IC50 at PDE 2A and on PDE10 were 0.456 µM and 8.43 µM, respectively.
Turning to `O=C(N[C@]1(c2ccc(C(F)(F)F)cc2F)CCOC[C@@H]1O)c1cnn2cc(C3CC3)cnc12` (racemic) [Example 49], the IC50 at PDE 2A was 0.07 µM; against PDE10, > 10 µM.
On the same counts, the results for `Cc1nn2cc(C3CC3)cnc2c1C(=O)NC1(c2ccc(C(F)(F)F)cn2)CCOCC1O` (racemic) [Example 65] are 0.03 µM and 9.76 µM.
As to `O=C(NC1(c2ccc(C(F)(F)F)cc2F)CCOCC1)c1cnn2cc(F)cnc12` [Example 3], the figures for the IC50 at PDE 2A and at PDE10 were 0.266 µM and > 10 µM, respectively. Also, the fraction unbound at 2 h, 1 µM in series [1] was 0.157. The half-life at 1 µM in series [3] turned out to be 1.2 h.
`Cc1cnc2c(C(=O)NC3(c4ccc(C(F)(F)F)cc4F)CCOCC3O)cnn2c1` (racemic) [Example 46]: the IC50 on PDE10 was > 10 µM. The fraction unbound at 2 h, 1 µM in series [1] is 0.329; in series [2] it was 0.313. Further, the half-life at 1 µM in series [3] is > 2.17 h.
As to `CC1(O)COCCC1(NC(=O)c1cnn2cc(C3CC3)cnc12)c1ccc(C(F)(F)F)cc1F` (racemic) [Example 53], the fraction unbound at 2 h, 1 µM in series [1] is 0.183.
For `O=C(NC1(c2ccc(C(F)(F)F)cc2)CCOCC1)c1cnn2cc(C3CC3)cnc12` [Example 8], the IC50 is 0.069 µM on PDE 2A and > 10 µM on PDE10.
The corresponding values for `Cc1cnc2c(C(=O)NC3(c4ccc(C(F)(F)F)nc4)CCOCC3O)cnn2c1` (single isomer, unassigned) [Example 87a] are 1 µM and > 10 µM.
`Cc1cnc2c(C(=O)NC3(c4ccc(C(F)(F)F)cc4F)CCOC3)cnn2c1` (racemic) [Example 35]: the IC50 on PDE 2A was 0.031 µM; against PDE10, > 10 µM. In addition, the results for the fraction unbound at 2 h, 1 µM in series [1] and in series [2] were 0.076 and 0.063, respectively.
In the case of `O=C(NC1(c2ccc(Cl)c(F)c2)CCOCC1)c1cnn2cc(C3CC3)cnc12` [Example 16], the IC50 on PDE 2A was 0.537 µM; on PDE10, > 10 µM.
On to `O=C(N[C@]1(c2ccc(C(F)(F)F)cc2F)CCOC[C@H]1O)c1cnn2cc(C3CC3)cnc12` (racemic) [Example 48], for which the IC50 was 0.00135 µM on PDE 2A and 6.62 µM against PDE10.
Regarding `Cc1cnc2c(C(=O)NC3(c4ccc(C(F)(F)F)cc4)CCOCC3)cnn2c1` [Example 9], the figures for the IC50 at PDE 2A and against PDE10 were 0.117 µM and > 10 µM, respectively.
`O=C(NC1(c2ccc(C(F)(F)F)cc2F)CCOCC1=O)c1cnn2cc(C3CC3)cnc12` (centres unmarked) [Example 66]: the values for the IC50 at PDE 2A and against PDE10 were 0.025 µM and > 10 µM, respectively.

In general, IC50 refers to the concentration at which inhibition is half-maximal. As usually defined, the half-life is the time in which the quantity being followed falls by half.
